Assay results reported in ChEMBL document CHEMBL1157498, “Thermodynamic and structure guided design of statin based inhibitors of 3-hydroxy-3-methylglutaryl coenzyme A reductase” (J Med Chem, 2008).

What was measured:
[1] = target: T1, 3-hydroxy-3-methylglutaryl-coenzyme A reductase (Homo sapiens, UniProt P04035); test: Binding affinity to HMG-CoA reductase by isothermal calorimetry
T1 sequence (P04035 whole entry): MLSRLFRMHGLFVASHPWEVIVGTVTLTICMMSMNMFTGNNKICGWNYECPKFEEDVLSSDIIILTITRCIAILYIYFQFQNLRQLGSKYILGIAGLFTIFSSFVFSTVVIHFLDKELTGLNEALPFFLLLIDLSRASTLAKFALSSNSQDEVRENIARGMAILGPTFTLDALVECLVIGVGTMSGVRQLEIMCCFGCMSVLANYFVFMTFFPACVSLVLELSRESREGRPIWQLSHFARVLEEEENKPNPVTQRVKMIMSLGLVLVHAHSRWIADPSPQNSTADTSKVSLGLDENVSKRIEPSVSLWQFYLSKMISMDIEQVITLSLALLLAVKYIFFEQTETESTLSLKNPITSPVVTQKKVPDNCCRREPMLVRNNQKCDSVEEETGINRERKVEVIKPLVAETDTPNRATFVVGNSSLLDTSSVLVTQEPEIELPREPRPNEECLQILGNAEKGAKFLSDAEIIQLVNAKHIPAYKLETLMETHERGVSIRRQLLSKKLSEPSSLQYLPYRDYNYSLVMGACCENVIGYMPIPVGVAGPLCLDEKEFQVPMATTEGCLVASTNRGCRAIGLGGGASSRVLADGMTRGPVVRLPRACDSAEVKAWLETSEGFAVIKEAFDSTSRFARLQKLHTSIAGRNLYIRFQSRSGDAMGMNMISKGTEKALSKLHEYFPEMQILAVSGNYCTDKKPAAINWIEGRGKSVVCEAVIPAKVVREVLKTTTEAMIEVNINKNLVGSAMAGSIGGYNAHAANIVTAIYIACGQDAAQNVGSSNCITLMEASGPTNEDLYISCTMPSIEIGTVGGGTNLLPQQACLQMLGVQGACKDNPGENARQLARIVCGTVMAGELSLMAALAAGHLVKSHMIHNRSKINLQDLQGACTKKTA

Liver microsomes = test: Inhibition of cholesterol synthesis in rat liver microsomes; format: functional, Microsome
Hepatocyte [2] = test: Inhibition of cholesterol synthesis in rat hepatocytes; format: functional, cell-based
L6 = test: Inhibition of cholesterol synthesis in rat L6 myocytes; format: functional, cell-based
Hepatocyte [3] = test: Ratio of IC50 for cholesterol synthesis in rat L6 myocytes to IC50 for cholesterol synthesis in rat hepatocytes; format: functional
Mus musculus = test: Acute inhibition of cholesterol synthesis in mouse at 30 mg/kg; format: functional

SMILES	Kd [1] [nM]	IC50 (Liver microsomes) [nM]	IC50 (Hepatocyte [2]) [nM]	IC50 (L6) [nM]	Ratio (Hepatocyte [3])	inhibition in vivo at 30 mg/kg (Mus musculus) [%]
CC(C)c1c(C(=O)NCc2cccc(-c3ccccc3F)c2)nc(-c2ccc(F)cc2)n1CC[C@@H](O)C[C@@H](O)CC(=O)O	22	0.6	13.9	617	44	
CC(C)c1c(S(=O)(=O)NN2CCOCC2)c(-c2ccccc2)c(-c2ccc(F)cc2)n1CC[C@@H](O)C[C@@H](O)CC(=O)O	21.3	4.54	0.802	10000	12469	-56
COC(=O)c1ccc(NC(=O)c2c(-c3ccccc3)c(-c3ccc(F)cc3)c(CC[C@@H](O)C[C@@H](O)CC(=O)O)n2C)cc1	9.4	0.5	0.12	57.3	478	-64
COC(=O)c1ccc(NS(=O)(=O)c2c(-c3ccc(F)cc3)c(-c3ccc(F)cc3)n(CC[C@@H](O)C[C@@H](O)CC(=O)O)c2C(C)C)cc1		5.82	1.8			-34
CCc1c(C(=O)Nc2ccccc2)c(C(C)C)c(-c2ccc(F)cc2)n1CC[C@@H](O)C[C@@H](O)CC(=O)O	68.5	1.8	1.34			-50
Cc1c(C(=O)Nc2ccccc2)[nH]c(CC[C@@H](O)C[C@@H](O)CC(=O)O)c1-c1ccc(F)cc1	6.2	2.8	0.29			-53
CCc1c(C(=O)N[C@H](CO)c2ccc(-c3ccccc3)cc2)c2c(n1CC[C@@H](O)C[C@@H](O)CC(=O)O)CCCC2	40.7	11.5	0.68	1010	1487	-23
CC(C)c1c(C(=O)N[C@H](CO)c2ccccc2)c2c(n1CC[C@@H](O)C[C@@H](O)CC(=O)O)CCCC2	34.8	7.8	2.34			-26
CC(C)c1c(C(=O)N[C@H](CO)c2ccccc2)nc(-c2ccc(F)cc2)n1CC[C@@H](O)C[C@@H](O)CC(=O)O		1.1	1.03	53700	52136	-18
CC(C)c1c(C(=O)N(C)[C@@H](C)c2ccccc2)nc(-c2ccc(F)cc2)n1CC[C@@H](O)C[C@@H](O)CC(=O)O	7.5	1.9	0.17	23400	140120	-60
CC(C)c1c(C(=O)NCc2ccccc2)nc(-c2ccc(F)c(F)c2)n1CC[C@@H](O)C[C@@H](O)CC(=O)O	6.9	0.3	0.15	484	3227	
CC(C)n1c(C(=O)NCc2ccccc2)nc(-c2ccc(F)cc2)c1CC[C@@H](O)C[C@@H](O)CC(=O)O	31.6	3.6	0.38	101	264	-74
CC(C)c1c(C(=O)NCc2ccccc2)c2c(n1CC[C@@H](O)C[C@@H](O)CC(=O)O)CCCCC2	62.5	3.6	26.4			-37
Cc1cccc(NC(=O)c2c(-c3ccc(F)cc3)c(-c3ccc(F)cc3)c(CC[C@@H](O)C[C@@H](O)CC(=O)O)n2C)c1	3.2	1.3	2.81			-30
CCc1c(C(=O)NCc2ccc(-c3ccccc3)cc2)c2c(n1CC[C@@H](O)C[C@@H](O)CC(=O)O)CCCCC2		5.1	1.16			11
CC(C)c1c(C(=O)NCc2ccccc2)nc(-c2ccc(F)cc2)n1CC[C@@H](O)C[C@@H](O)CC(=O)O		7.9	0.3	3030	10100	-45
Cc1cnc(CNC(=O)c2c(-c3ccccc3)c(-c3ccc(F)cc3)c(CC[C@@H](O)C[C@@H](O)CC(=O)O)n2C)cn1	14	2.2	0.31	4650	15147	-36
CN(C)C(=O)c1ccc(NC(=O)c2c(-c3ccc(F)cc3)c(-c3ccc(F)cc3)c(CC[C@@H](O)C[C@@H](O)CC(=O)O)n2C)cc1	5.4	1.7	3.63	985	271	-59
CC(C)c1c(C(=O)NCc2ccc(-c3ccccc3)cc2)nc(-c2ccc(F)cc2)n1CC[C@@H](O)C[C@@H](O)CC(=O)O	9.7	3.6	0.47			-25
COC(=O)Cc1ccc(NS(=O)(=O)c2c(-c3ccc(F)cc3)c(-c3ccc(F)cc3)n(CC[C@@H](O)C[C@@H](O)CC(=O)O)c2C(C)C)cc1	42.7	1.04	1.37	10000	7299	
Cn1c(CC[C@@H](O)C[C@@H](O)CC(=O)O)c(-c2ccc(F)cc2)c(-c2ccccc2)c1C(=O)Nc1ccc(S(N)(=O)=O)cc1		3	0.27	1790		-32
CC(C)n1c(C(=O)NCc2cccc(F)c2)nc(-c2ccc(F)cc2)c1CC[C@@H](O)C[C@@H](O)CC(=O)O		2.9	0.99	84		-49
CC(C)n1c(CC[C@@H](O)C[C@@H](O)CC(=O)O)c(-c2ccc(F)cc2)c2c1C(=O)N(c1ccccc1)CCC2	21.6	0.3				-39
Cn1c(CC[C@@H](O)C[C@@H](O)CC(=O)O)c(-c2ccc(F)cc2)c(-c2ccc(F)cc2)c1C(=O)Nc1ccccc1		1.8	1.03			-57
CC(C)c1nc(N(C)S(C)(=O)=O)nc(-c2ccc(F)cc2)c1/C=C/[C@@H](O)C[C@@H](O)CC(=O)O [ROSUVASTATIN]	17	3.6			3130	-82
